Source: ChEMBL document CHEMBL1201862, “PubChem BioAssay data set” (2004)
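Following 48 hours of exposure in 96-well plates, responses at five concentrations were used to interpolate endpoints linearly. Abbreviation: GI50, concentration required for 50% inhibition of growth.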 Active and inactive are the calls of the source. No stated cut-off is given here; in the data, active = GI50 up to about 1.1 µM and inactive = higher.

Assays:
Test in all cases: inhibition of tumour cell growth, NCI panel, 48 h
NCI-H522 = tested on: NCI-H522
NCI-H23 = tested on: NCI-H23
LOX IMVI = tested on: LOX IMVI
DU-145 = tested on: DU-145
Hs-578T = tested on: Hs-578T
SK-MEL-28 = tested on: SK-MEL-28
RXF 393 = tested on: RXF 393
IGROV-1 = tested on: IGROV-1
SF-268 = tested on: SF-268
UO-31 = tested on: UO-31
CCRF-CEM = tested on: CCRF-CEM
SN12C = tested on: SN12C
CAKI-1 = tested on: CAKI-1
SNB-75 = tested on: SNB-75
SK-MEL-2 = tested on: SK-MEL-2
HOP-92 = tested on: HOP-92
SK-OV-3 = tested on: SK-OV-3
SW-620 = tested on: SW-620
HCT-15 = tested on: HCT-15
KM-20L2 = tested on: KM-20L2

Measured: GI50

Cn1c(=O)c2nc(SCCN3CCOCC3)[nH]c2n(C)c1=S
inactive: NCI-H522 > 100 µM | NCI-H23 > 100 µM | LOX IMVI > 100 µM | DU-145 > 100 µM | Hs-578T > 100 µM | SK-MEL-28 > 100 µM | RXF 393 > 100 µM | IGROV-1 > 100 µM | SF-268 > 100 µM | UO-31 > 100 µM | CCRF-CEM > 100 µM | SN12C > 100 µM | CAKI-1 > 100 µM | SNB-75 > 100 µM | SK-MEL-2 > 100 µM | HOP-92 > 100 µM | SK-OV-3 > 100 µM | SW-620 > 100 µM
> 100 µM: HCT-15

COc1cc2c(OC)c3cc(C)oc(=O)c3c(O)c2c(O)c1-c1c(OC)cc2c(OC)c3cc(C)oc(=O)c3c(O)c2c1O
inactive: NCI-H522 18.7 µM | NCI-H23 16.6 µM | LOX IMVI 19.6 µM | DU-145 33.9 µM | Hs-578T 34.2 µM | SK-MEL-28 21.2 µM | RXF 393 20.1 µM | IGROV-1 14 µM | SF-268 21.5 µM | UO-31 18.5 µM | CCRF-CEM 18.6 µM | SN12C 20.7 µM | CAKI-1 15.2 µM | SNB-75 45.1 µM | SK-MEL-2 17.5 µM | HOP-92 16.1 µM | SK-OV-3 45.2 µM | SW-620 30 µM
18.5 µM: HCT-15

C=C1CC(CNc2cc(Cl)nc(N)n2)C1
inactive: NCI-H522 96.8 µM | NCI-H23 > 100 µM | LOX IMVI > 100 µM | DU-145 > 100 µM | Hs-578T 51.4 µM | SK-MEL-28 > 100 µM | RXF 393 50.9 µM | IGROV-1 > 100 µM | SF-268 > 100 µM | UO-31 > 100 µM | CCRF-CEM > 100 µM | SN12C > 100 µM | CAKI-1 74.5 µM | SNB-75 > 100 µM | SK-MEL-2 > 100 µM | HOP-92 78.2 µM | SK-OV-3 44.9 µM | SW-620 > 100 µM
67.8 µM: HCT-15

O=c1c2ccccc2nc(-c2cccc(Cl)c2)n1NCC1(O)OCC(O)C(O)C1O (stereo not given)
> 100 µM: HCT-15
inactive: NCI-H522 37.8 µM | NCI-H23 > 100 µM | LOX IMVI > 100 µM | SK-MEL-28 > 100 µM | RXF 393 51.9 µM | SF-268 > 100 µM | UO-31 > 100 µM | CCRF-CEM 41.7 µM | KM-20L2 > 100 µM | SN12C > 100 µM | CAKI-1 > 100 µM | SNB-75 > 10 µM | SK-MEL-2 > 100 µM | SK-OV-3 > 100 µM | SW-620 > 100 µM

CCOC(=O)CC(C)C1(C(=O)OCC)CCCCC1=O (stereo not given)
inactive: NCI-H522 > 100 µM | LOX IMVI 67.3 µM | SK-MEL-28 > 100 µM | RXF 393 > 100 µM | IGROV-1 > 100 µM | SF-268 > 100 µM | UO-31 > 100 µM | CCRF-CEM > 100 µM | KM-20L2 98.9 µM | SN12C > 100 µM | CAKI-1 > 100 µM | SNB-75 > 100 µM | SK-MEL-2 > 100 µM | SK-OV-3 > 100 µM
22.9 µM: HCT-15

CN1C(=O)N(c2nc3ccccc3[nH]2)C(C)(C)C1=O
inactive: NCI-H522 > 100 µM | NCI-H23 > 100 µM | LOX IMVI > 100 µM | SK-MEL-28 > 100 µM | RXF 393 > 100 µM | IGROV-1 > 100 µM | SF-268 > 100 µM | UO-31 > 100 µM | CCRF-CEM > 100 µM | KM-20L2 > 100 µM | SN12C > 100 µM | SNB-75 > 100 µM | SK-MEL-2 > 100 µM | SK-OV-3 > 100 µM | SW-620 > 100 µM
> 100 µM: HCT-15

O=C(NCCCN1CCN(CCCNC(=O)c2cc(-c3ccccc3)nc3ccccc23)CC1)c1cc(-c2ccccc2)nc2ccccc12
19.4 µM: HCT-15
inactive: NCI-H522 14 µM | NCI-H23 37.3 µM | LOX IMVI 2.86 µM | DU-145 29.8 µM | Hs-578T 13.2 µM | SK-MEL-28 2.05 µM | RXF 393 > 30.9 µM | IGROV-1 9.53 µM | SF-268 > 38.5 µM | UO-31 9.18 µM | CCRF-CEM 11.6 µM | SN12C 16.3 µM | CAKI-1 7.59 µM | SNB-75 > 38.1 µM | SK-MEL-2 16.3 µM | HOP-92 5.6 µM | SK-OV-3 16.4 µM | SW-620 9.71 µM

C=C1C(=O)O[C@H]2C/C(C)=C/CC[C@]3(C)CCC[C@](C)(CC[C@@H]12)O3
active: CCRF-CEM 0.828 µM
inactive: NCI-H522 6.35 µM | NCI-H23 11.3 µM | LOX IMVI 12.2 µM | DU-145 15.2 µM | Hs-578T 8.69 µM | SK-MEL-28 7.52 µM | RXF 393 8.09 µM | IGROV-1 6.59 µM | SF-268 7.8 µM | UO-31 8.69 µM | SN12C 12.7 µM | CAKI-1 12 µM | SNB-75 11.9 µM | SK-MEL-2 8.51 µM | HOP-92 6.46 µM | SK-OV-3 22.2 µM | SW-620 7.71 µM
10.8 µM: HCT-15

CCOC(=O)C1=C(C)N(c2ccc(C)cc2)C2=C(C(=O)N(c3ccccc3)C2c2ccccc2)C1c1ccccc1 (stereo not given)
> 25 µM: HCT-15
inactive: NCI-H23 11.9 µM | LOX IMVI > 25 µM | SK-MEL-28 > 25 µM | IGROV-1 > 25 µM | SF-268 > 25 µM | UO-31 21 µM | CCRF-CEM 20.8 µM | KM-20L2 > 25 µM | SN12C > 25 µM | SNB-75 1.51 µM | SK-MEL-2 > 25 µM | SW-620 > 25 µM
active: RXF 393 0.558 µM

CCOC(=O)Cn1nnc2ccc(Nc3nc4ccccc4nc3-c3ccccc3)cc21
> 100 µM: HCT-15
inactive: NCI-H522 > 100 µM | NCI-H23 > 100 µM | LOX IMVI > 100 µM | DU-145 11 µM | Hs-578T 75.2 µM | SK-MEL-28 > 100 µM | RXF 393 > 100 µM | IGROV-1 > 100 µM | SF-268 65.5 µM | UO-31 4.72 µM | CCRF-CEM > 100 µM | SN12C > 100 µM | CAKI-1 > 100 µM | SNB-75 30.8 µM | SK-MEL-2 > 100 µM | HOP-92 > 100 µM | SK-OV-3 90.8 µM | SW-620 > 100 µM

COc1ccccc1NC1=NCC(C)S1 (stereo not given)
> 100 µM: HCT-15
inactive: NCI-H522 > 100 µM | NCI-H23 > 100 µM | LOX IMVI > 100 µM | DU-145 > 100 µM | Hs-578T > 100 µM | SK-MEL-28 > 100 µM | RXF 393 33.8 µM | IGROV-1 > 100 µM | SF-268 > 100 µM | UO-31 > 100 µM | CCRF-CEM > 100 µM | SN12C > 100 µM | CAKI-1 > 100 µM | SNB-75 > 100 µM | SK-MEL-2 > 100 µM | HOP-92 > 100 µM | SK-OV-3 > 100 µM | SW-620 > 100 µM

CC(=O)OCC1OC(Oc2cc(C)c(O)cc2C/C=C(\C)CC/C=C(\C)C[C@@H](C=C(C)C)OC(C)=O)C(O)C(OC(C)=O)C1OC(C)=O (stereo not given in full)
16.3 µM: HCT-15
inactive: NCI-H522 17.1 µM | NCI-H23 23.3 µM | LOX IMVI 13.9 µM | DU-145 28.6 µM | Hs-578T 13.6 µM | SK-MEL-28 44.5 µM | RXF 393 12 µM | IGROV-1 33.6 µM | SF-268 28.2 µM | UO-31 18 µM | CCRF-CEM 9.46 µM | SN12C 20.2 µM | CAKI-1 > 50 µM | SNB-75 13.2 µM | SK-MEL-2 19.9 µM | HOP-92 > 50 µM | SK-OV-3 > 50 µM | SW-620 23.6 µM

Cc1cc2nc(-c3c(F)cccc3F)n(Cc3c(F)cccc3F)c2cc1C
inactive: NCI-H522 12.7 µM | NCI-H23 19.6 µM | LOX IMVI 14.3 µM | DU-145 23.6 µM | Hs-578T 19.2 µM | SK-MEL-28 16.6 µM | RXF 393 23.2 µM | IGROV-1 14.3 µM | SF-268 18.8 µM | UO-31 11.1 µM | CCRF-CEM 22.7 µM | SN12C 16.4 µM | CAKI-1 15.2 µM | SNB-75 3.37 µM | SK-MEL-2 15.8 µM | HOP-92 12.7 µM | SK-OV-3 16.9 µM | SW-620 16.3 µM
14.4 µM: HCT-15

CC1(C)CCCCCCC2OC2CCCCCC(C)(C)C1=O (stereo not given)
> 89.5 µM: HCT-15
inactive: NCI-H522 22.1 µM | NCI-H23 57.7 µM | LOX IMVI > 67.8 µM | DU-145 > 71.1 µM | Hs-578T 45.1 µM | SK-MEL-28 65.2 µM | RXF 393 20.1 µM | IGROV-1 47.8 µM | SF-268 50.2 µM | UO-31 25.5 µM | CCRF-CEM 28.2 µM | SN12C > 44.8 µM | CAKI-1 20.5 µM | SNB-75 28 µM | SK-MEL-2 31.8 µM | HOP-92 27 µM | SK-OV-3 69.8 µM | SW-620 52.4 µM

Cc1n[nH]c(=O)n1/N=C/c1ccncc1
> 100 µM: HCT-15
inactive: NCI-H522 > 100 µM | NCI-H23 > 100 µM | LOX IMVI > 100 µM | DU-145 > 100 µM | Hs-578T > 100 µM | SK-MEL-28 > 100 µM | RXF 393 > 100 µM | IGROV-1 > 100 µM | SF-268 > 100 µM | UO-31 > 100 µM | CCRF-CEM > 100 µM | SN12C > 100 µM | CAKI-1 > 100 µM | SNB-75 > 100 µM | SK-MEL-2 > 100 µM | HOP-92 > 100 µM | SK-OV-3 > 100 µM | SW-620 > 100 µM
